{"source": "patent US20220089646A1", "about": "(THE UNIVERSITY OF QUEENSLAND, priority 2019, published 2022)", "key": {"trypsin": {"test_system": "trypsin", "test": "stock trypsin solution (1 mg trypsin in 50 mL of 0.1 M NH4HCO3 buffer)", "conditions": "37° C., up to 24 hours"}, "[1]": {"test": "Plasma stability assay (Table 10)", "type": "in vitro ADME", "conditions": "37° C., 100 uM peptide, One Phase Decay, read-out: Stability (t1/2, mins) Plasma; for half-life: rat plasma; for half-life at 100 uM: both sexes, Wistar, rat plasma (EDTA)", "excerpt": "(§1) FIG. 20 is a series of graphs showing the stability of selected peptides in a trypsin (left-hand graphs) and plasma (right-hand graphs) stability assay (data normalised to concentration of each peptide at t=0, determined by LCMS, within each substrate; data analysed using One Phase Decay nonlinear regression in Prism software and each experiment performed in triplicate; mean+/−SEM);\n(§2) The results shown in Table 10 utilized rat plasma. • Note that DP-7-11 and CP5 represent the same compound, and DP-7-12 and CP6 are the same compound. In this regard, a different regression analysis method was adopted on the above cAMP experiments. Particularly, a new non-linear regression (four-parameter) was adopted to better account for hill slope, thereby improving the regression fit.\n(§3) Plasma was collected in house from adult mixed-gender Wistar rats, prepared using 2% EDTA as per standard practice. Peptides were added to rat plasma samples at 37° C. (in a water bath) with final concentrations of 100 uM (1:9 peptide in water:plasma) and a 50 μL sample was immediately taken and precipitated in 150 μL cold acetonitrile (9:1 ACN:water). This sample became the baseline, or t=0 min sample. Plasma with peptide was immediately returned to the water bath and subsequent 50 μL samples were taken at 5, 10, 15, 30, 60 and 120 min. At each time point, the 50 μL of plasma collected was immediately added to cold ACN. Each collected plasma sample in ACN was directly vortexed for 30 seconds and then centrifuged at room temperature (13K rpm, 5 min). 150 μL of the supernatant was taken and directly placed in glass HPLC vials for LCMS analysis."}, "DOP": {"target": "DOP (Homo sapiens, UniProt P41143)", "sequence (P41143 whole entry)": "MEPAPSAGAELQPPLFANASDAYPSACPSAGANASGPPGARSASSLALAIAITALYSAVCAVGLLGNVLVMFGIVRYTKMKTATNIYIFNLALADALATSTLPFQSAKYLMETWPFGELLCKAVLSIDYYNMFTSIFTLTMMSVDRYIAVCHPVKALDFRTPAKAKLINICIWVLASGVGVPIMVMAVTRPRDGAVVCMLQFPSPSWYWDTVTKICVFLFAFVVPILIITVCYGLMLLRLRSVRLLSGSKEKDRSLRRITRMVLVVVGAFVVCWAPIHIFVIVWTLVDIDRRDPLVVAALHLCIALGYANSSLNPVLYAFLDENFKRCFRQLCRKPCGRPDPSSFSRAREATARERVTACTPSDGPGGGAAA", "test": "In vitro cAMP activity at DOP (Table 10)", "type": "cell-based", "conditions": "cAMP inhibition, four-parameter regression", "method": "(§4) The CP series compounds were assayed as follows: The assay was performed using a 96 well ½ area plate. The different cAMP standard solutions (3 μL/well) were plated in duplicate. The different concentrations of drug (3 μL/well), and control solutions (3 μL/well) were plated in triplicate. Following this, the acceptor bead mixture (3 μL/well) was added to the respective sets—either cAMP standard curve or the treatment. This was covered and incubated on the orbital shaker for 60 minutes at 37° C. Then, the donor bead mixture (10 μL/well) was added to each well. This was incubated at room temperature overnight on the orbital shaker.\n(§5) For DP-11-06 the assay was carried out in the same way as for the CP compounds except it was incubated for 30 mins at 37° C.\n(§6) For the CP series compounds and DP-11-06, the Ensight® Multimode Plate Reader was used to quantify the fluorescence units of each plate. Before reading, each plate was centrifuged at 280 g for 30 seconds. Using GraphPad Prism7® Software, cAMP concentrations were determined by fit spline/LOWESS analysis. The cAMP standard curve was used for interpolation at this point. The cAMP concentrations were then normalized to the highest cAMP concentration recorded and analyzed by one-way ANOVA for multiple comparisons. The IC50 for each compound was then calculated using GraphPad Prism7® with non-linear regression analysis using four parameter curve fitting.\n(§7) In this regard, a different regression analysis method was adopted on the above cAMP experiments. Particularly, a new non-linear regression (four-parameter) was adopted to better account for hill slope, thereby improving the regression fit."}, "Stability in cAMP buffer": {"test": "Stability in cAMP buffer", "type": "physicochemical", "conditions": "over 60 minutes", "excerpt": "Select compounds were also screened for stability in cAMP buffer, to assess whether they degrade spontaneously in the cell assay environment, in the absence of cellular metabolic processes."}, "KOP": {"target": "KOP (Homo sapiens, UniProt P41145)", "sequence (P41145 whole entry)": "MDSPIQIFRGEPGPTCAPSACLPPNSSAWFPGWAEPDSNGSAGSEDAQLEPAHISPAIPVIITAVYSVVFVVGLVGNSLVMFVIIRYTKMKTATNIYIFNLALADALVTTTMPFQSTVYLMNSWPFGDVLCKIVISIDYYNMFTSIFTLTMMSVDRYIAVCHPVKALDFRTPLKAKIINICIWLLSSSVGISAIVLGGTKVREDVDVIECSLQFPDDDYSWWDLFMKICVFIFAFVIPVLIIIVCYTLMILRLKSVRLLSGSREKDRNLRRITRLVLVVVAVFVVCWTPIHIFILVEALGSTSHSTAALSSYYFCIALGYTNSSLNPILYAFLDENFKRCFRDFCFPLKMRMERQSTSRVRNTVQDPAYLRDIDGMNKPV", "test": "In vitro cAMP activity at KOP (Table 10)", "type": "cell-based", "conditions": "cAMP inhibition, four-parameter regression, normalised to U50488H", "method": "as §4, §5, §6, §2"}, "[2]": {"target": "T1, bovine pancreatic trypsin (Bos taurus, UniProt P00760)", "T1 construct": "from tissue; host or cells: bovine pancreas", "T1 sequence (P00760 24-246)": "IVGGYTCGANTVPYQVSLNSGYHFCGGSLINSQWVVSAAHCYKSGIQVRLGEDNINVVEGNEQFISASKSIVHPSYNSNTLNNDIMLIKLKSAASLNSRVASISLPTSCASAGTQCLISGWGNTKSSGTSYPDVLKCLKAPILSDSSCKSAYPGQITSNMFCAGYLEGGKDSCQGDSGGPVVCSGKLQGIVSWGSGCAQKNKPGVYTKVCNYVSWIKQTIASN", "test": "Trypsin stability assay (Table 10)", "type": "in vitro ADME", "conditions": "for half-life / half-life at 100 uM: bovine pancreatic trypsin 2.5 μg/mL, 37° C., One Phase Decay, read-out: Stability (t1/2, mins) Trypsin; for half-life at 100 uM: bovine pancreatic trypsin solution; for Degradation in trypsin: over the 120 minute assay", "excerpt": "as §1\nas §3, with “Plasma with peptide was immediately returned to the water bath and subsequent 50 μL samples were taken at 5, 10, 15, 30, 60 and 120 min.” left out\nThe protocol for the trypsin stability assay was very similar to the plasma stability assay discussed above. The only difference was the use of a trypsin solution (bovine pancreatic trypsin 2.5 μg/mL in NH4HCO3 buffer, pH approx. 8-8.5, 37° C.) instead of rat plasma. Volumes, times and preparation protocols were exactly as mentioned above."}, "MOP": {"target": "MOP (Homo sapiens, UniProt P35372)", "sequence (P35372 whole entry)": "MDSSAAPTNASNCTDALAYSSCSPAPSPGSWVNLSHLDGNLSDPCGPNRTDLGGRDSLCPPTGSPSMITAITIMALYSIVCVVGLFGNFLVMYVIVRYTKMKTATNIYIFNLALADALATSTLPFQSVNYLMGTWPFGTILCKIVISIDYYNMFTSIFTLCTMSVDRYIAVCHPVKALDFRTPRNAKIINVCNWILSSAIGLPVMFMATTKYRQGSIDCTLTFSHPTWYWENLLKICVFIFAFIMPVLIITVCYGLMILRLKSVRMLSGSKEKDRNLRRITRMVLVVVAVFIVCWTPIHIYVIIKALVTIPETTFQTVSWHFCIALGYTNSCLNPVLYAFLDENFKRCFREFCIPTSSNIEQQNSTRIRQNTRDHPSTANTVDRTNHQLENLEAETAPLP", "test": "In vitro cAMP activity at MOP (Table 10)", "type": "cell-based", "conditions": "cAMP inhibition, four-parameter regression", "method": "as §4, §5, §6, §7"}, "[3]": {"test_system": "bovine pancreatic trypsin", "test": "bovine pancreatic trypsin 2.5 μg/mL in NH4HCO3 buffer, pH approx. 8-8.5", "conditions": "37° C., up to 120 min"}}, "note": "“Also recorded” adds a separate entry of the source. *1 amine or outer side, *2 acyl side, *3 side chain or, on linkers, in order; H or OH if unused. Where a SMILES comes first, the peptide text is derived from it. Bridges are numbered along the chain shown (N, C = ends). [ ]: non-standard residue; d: D form. ξ: configuration not given here. Phe(4-NO2) = N[C@@H](Cc1ccc([N+](=O)[O-])cc1)C(=O)O; Phe(4-Cl) = N[C@@H](Cc1ccc(Cl)cc1)C(=O)O; NHCH2CMe2S = CC(C)(CN[*:1])S[*:2]; NMeR = CN[C@@H](CCCNC(=N)N)C(=O)O; X1 = CC(C)(CN[*:2])S[*:1]; ξC = NC(CS)C(=O)O; Sar = CNCC(=O)O"}
{"compound": "Tyr-Gly-Gly-Phe-Leu-Arg-Arg-Ile-Arg-Pro-Lys", "values": [{"measurement": "fragment found", "setting": "trypsin", "result": "DYN A (1-7), first_seen, initial time point samples; also recorded: DYN A (1-6), first_seen, initial time point samples"}, {"measurement": "not cleaved", "setting": "trypsin", "result": "DYN 1-9 was not observed upon trypsin digestion"}]}
{"compound": "CC(C)C[C@H](NC(=O)[C@H](Cc1ccc(Cl)cc1)NC(=O)CN(C)C(=O)[C@@H](N)Cc1ccc(O)cc1)C(=O)N[C@@H](CCCNC(=N)N)C(=O)N[C@H](CCCNC(=N)N)C(=O)N[C@H]1CSSC(C)(C)CNC(=O)C[C@@H](C(N)=O)NC1=O", "note": "[CP9, c(Tyr-Sar-(p-Cl-Phe)-Leu-Arg-D(Arg)-SSa-Asp)] (H-Y[Sar][Phe(4-Cl)]LR[dR]CD-NH2; linker 7-8 via X1)", "values": [{"measurement": "half-life", "setting": "[1]", "result": 85.5, "unit": "min"}, {"measurement": "EC50", "setting": "DOP", "result": "> 10000", "unit": "nM"}, {"measurement": "Degradation in cAMP assay buffer", "setting": "Stability in cAMP buffer", "result": "no degradation"}, {"measurement": "EC50", "setting": "KOP", "result": 1.8, "unit": "nM"}, {"measurement": "half-life", "setting": "[2]", "result": 49.8, "unit": "min"}, {"measurement": "EC50", "setting": "MOP", "result": "> 10000", "unit": "nM"}]}
{"compound": "c(Tyr-Gly-Gly-Phe-D(Asp)-Arg-SSa-Ile-Arg-Pro-Lys)", "values": [{"measurement": "not cleaved", "setting": "trypsin", "result": "Stable up to 6 h; more than 90% remained after 360 minutes"}]}
{"compound": "c(Tyr-Sar-(p-NO2-Phe)-Leu-Arg-NMA-D(Asp)-D(Arg)-SSa-D(Lys))", "values": [{"measurement": "not cleaved", "setting": "[3]", "result": "no sign of degradation over the 120 minute assay"}]}
{"compound": "Tyr-Gly-Gly-Phe-Leu-Arg-Arg", "values": [{"measurement": "fragment found", "setting": "trypsin", "result": "DYN A (1-6), 15 min"}]}
{"compound": "CC(C)C[C@H](NC(=O)[C@H](Cc1ccc([N+](=O)[O-])cc1)NC(=O)CN(C)C(=O)[C@@H](N)Cc1ccc(O)cc1)C(=O)N[C@@H](CCCNC(=N)N)C(=O)N(C)[C@@H](CCCNC(=N)N)C(=O)N[C@@H]1CC(=O)NCC(C)(C)SSC[C@H](C(=O)N[C@H](CCCCN)C(N)=O)NC(=O)[C@@H](CCCNC(=N)N)NC1=O", "note": "[CP14, c(Tyr-Sar-(p-NO2-Phe)-Leu-Arg-NMA-D(Asp)-D(Arg)-SSa-D(Lys))] (H-Y[Sar][Phe(4-NO2)]LR[NMeR][dD][dR][dC][dK]-NH2; linker 7-9 via NHCH2CMe2S)", "values": [{"measurement": "half-life at 100 uM", "setting": "[1]", "result": 70.8, "unit": "min"}, {"measurement": "Degradation in cAMP assay buffer", "setting": "Stability in cAMP buffer", "result": "no degradation"}, {"measurement": "EC50", "setting": "KOP", "result": 4.4, "unit": "nM"}, {"measurement": "half-life at 100 uM", "setting": "[2]", "result": 2320, "unit": "min"}, {"measurement": "Degradation in trypsin", "setting": "[2]", "result": "no sign of degradation"}, {"measurement": "EC50", "setting": "MOP", "result": "> 10000", "unit": "nM"}]}
{"compound": "CC(C)C[C@H](NC(=O)[C@H](Cc1ccc([N+](=O)[O-])cc1)NC(=O)CN(C)C(=O)[C@@H](N)Cc1ccc(O)cc1)C(=O)N[C@@H](CCCNC(=N)N)C(=O)N[C@H](CCCNC(=N)N)C(=O)N[C@@H]1CSSC(C)(C)CNC(=O)C[C@H](C(=O)N[C@@H](CCCCN)C(N)=O)NC(=O)[C@H](CCCNC(=N)N)NC1=O", "note": "[CP13, c(Tyr-Sar(p-NO2-Phe)-Leu-Arg-D(Arg)-SSa-Arg-D(Asp)-Lys] (H-Y[Sar][Phe(4-NO2)]LR[dR][dC]R[dD]K-NH2; linker 7-9 via X1)", "values": [{"measurement": "half-life at 100 uM", "setting": "[1]", "result": 63.3, "unit": "min"}, {"measurement": "Degradation in cAMP assay buffer", "setting": "Stability in cAMP buffer", "result": "no degradation"}, {"measurement": "EC50", "setting": "KOP", "result": 16, "unit": "nM"}, {"measurement": "half-life at 100 uM", "setting": "[2]", "result": 1410, "unit": "min"}, {"measurement": "Degradation in trypsin", "setting": "[2]", "result": "no sign of degradation"}, {"measurement": "EC50", "setting": "MOP", "result": "> 10000", "unit": "nM"}]}
{"compound": "CC1(C)CNC(=O)C[C@H](NC(=O)[C@@H](N)Cc2ccc(O)cc2)C(=O)NCC(=O)N[C@@H](Cc2ccccc2)C(=O)NC(C(=O)N[C@@H](CCCNC(=N)N)C(=O)N[C@@H](CCCNC(=N)N)C(N)=O)CSS1", "note": "(stereo partly drawn) [CP2, c(Tyr-Asp-Gly-Phe-SSa-Arg-Arg)] (H-YDGF[ξC]RR-NH2; linker 2-5 via NHCH2CMe2S; N-terminus assumed)", "values": [{"measurement": "half-life", "setting": "[1]", "result": "< 0.01", "unit": "min"}, {"measurement": "EC50", "setting": "DOP", "result": 1380, "unit": "nM"}, {"measurement": "EC50", "setting": "KOP", "result": 320, "unit": "nM"}, {"measurement": "half-life", "setting": "[2]", "result": "< 0.01", "unit": "min"}, {"measurement": "EC50", "setting": "MOP", "result": 2330, "unit": "nM"}]}
{"compound": "c(Tyr-Sar(p-NO2-Phe)-Leu-Arg-D(Arg)-SSa-Arg-D(Asp)-Lys", "values": [{"measurement": "not cleaved", "setting": "[3]", "result": "no sign of degradation over the 120 minute assay"}]}
